Source: patent publication US5358971A, “Substituted 2-aminotetralins” (Whitby Research, Inc., priority 1993, dated 1994)
Where a name gives a salt, the structure may show the parent alone.

How the values were obtained:
[1] = biological target: dopamine D2 receptors (Bos taurus, UniProt P20288); assay: Radioligand binding to dopamine D2 receptors ([3H]-Spiperone, bovine caudate nuclei); settings: for D2 (pK1) / Ki: bovine caudate nuclei, [3H]-Spiperone, 75 minutes at room temperature, 30 nM ketanserin, two-site fitted model; for Ki: read-out: D2 (pK1) (converted)
Protocol: (§1) Radioligand Binding Experiments (Dopamine Receptor Affinity Information; pK1 values):
(§2) Bovine brains were obtained fresh from a local slaughterhouse. The caudate nuclei were dissected out and homogenized in Buffer A (50 mM Tris; 1 mM Na2 -EDTA; 5 mM KCl; 1 mM MgCl2; 2 mM CaCl2; pH 7.4) using a Brinkmann Polytron. The homogenate was centrifuged at 40,000×g for 20 minutes and washed once. The pellet was resuspended in Buffer A, incubated at 37° C. for 15 minutes, then centrifuged. The pellet was washed once more, resuspended to a protein concentration of 5-10 mg/ml in Buffer A and frozen at -70° C. until used.
(§3) To test binding of the compounds to dopamine receptors, the following tritiated drugs were used as radioligands for each of the receptors tested: [^3 H]-Spiperone 21-24 Ci/mmol for D2 receptors and [^3 H]-SCH23390 75-85 Ci/mmol for D1 receptors. The radioligands were incubated with various concentrations of competing drug and bovine membranes for the following times: 75 minutes at room temperature for D2 receptors, and 15 minutes at 37° C. for D1 receptors. Specific binding was defined using 1 μM butaclamol (D2) and 1 μM SCH 23390 (D1). In addition, the D2 assays contained 30 nM ketanserin in order to block the binding of [^3 H]-spiperone to 5-HT2 receptors.
(§4) The assays were terminated by filtration using a 24-port Brandell cell harvester over filters that had been previously soaked in 0.1% polyethyleneimine, and the filters were washed three times by filtration of cold buffer. The filters were then placed in 5 ml scintillation vials to which 4 ml of Beckman Ready-Protein was then added, and each vial was counted for 2 minutes in a Beckman 3801 scintillation counter calibrated for conversion of cpm to dpm. Binding data were analyzed using the Ligand program of Munson and Rodbard (1980). The results are presented as pK1 values in a two-site fitted model.
as §2, with “To test binding to dopamine receptors, the bovine caudate nuclei assay was employed. Bovine” for “Bovine”, “mMMgCl2;” for “mM MgCl2;”, “Brinkman” for “Brinkmann”
(§5) The following tritiated drugs were used as radioligands for each of the receptors tested: [^3 H]-Spiperone 21-24 Ci/mmol for D2 receptors and [^3 H]-SCH23390 75-85 Ci/mmol for D1 receptors. The radioligands were incubated with various concentrations of competing drug and the appropriate membrane source for periods of time as follows: 75 minutes at room temperature for D2 receptors or 15 minutes at 37° C. for D1 receptors. Specific binding was defined using 1 μM butaclamol (D2) or 1 μM SCH23390 (D1). In addition, the D2 assays contained 30nM ketaserin in order to block the binding of ^3 H-spiperone to 5HT2 receptors.
as §4, with “as Ki” for “as pK1”, “values if the data were best fitted to a one-site model, or as Kh and K1 values if” for “values in”, “two-site model produced the better fit.” for “two-site fitted model.”

[2] = test system: dopamine D2; settings: reference compound, in words; cited from earlier work
[3] = biological target: dopamine D1 receptors (Bos taurus, UniProt Q95136); assay: Radioligand binding to dopamine D1 receptors ([3H]-SCH23390, bovine caudate nuclei); settings: 15 minutes at 37° C., two-site fitted model; for Ki: read-out: D1 (pK1) (converted)
Protocol: as §1, §2, §3, §4
as §2, with “To test binding to dopamine receptors, the bovine caudate nuclei assay was employed. Bovine” for “Bovine”, “mMMgCl2;” for “mM MgCl2;”, “Brinkman” for “Brinkmann”
as §5
as §4, with “as Ki” for “as pK1”, “values if the data were best fitted to a one-site model, or as Kh and K1 values if” for “values in”, “two-site model produced the better fit.” for “two-site fitted model.”

[4] = test system: dopamine receptor; settings: prior art, in words; cited from earlier work

dopamine D2 receptors, sequence (P20288 whole entry): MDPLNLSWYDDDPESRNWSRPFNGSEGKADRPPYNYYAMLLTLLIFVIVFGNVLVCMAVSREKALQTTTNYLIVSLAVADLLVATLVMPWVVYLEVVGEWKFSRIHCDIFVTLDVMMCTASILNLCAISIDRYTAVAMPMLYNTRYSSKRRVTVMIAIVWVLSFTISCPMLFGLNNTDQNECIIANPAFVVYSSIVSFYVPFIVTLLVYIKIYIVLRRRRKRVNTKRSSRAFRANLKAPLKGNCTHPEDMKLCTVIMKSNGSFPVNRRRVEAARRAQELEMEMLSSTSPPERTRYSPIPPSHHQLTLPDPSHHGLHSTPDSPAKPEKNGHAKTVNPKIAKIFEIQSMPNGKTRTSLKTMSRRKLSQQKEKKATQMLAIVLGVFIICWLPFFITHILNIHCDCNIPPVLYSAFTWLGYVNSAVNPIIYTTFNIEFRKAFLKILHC
dopamine D1 receptors, sequence (Q95136 whole entry): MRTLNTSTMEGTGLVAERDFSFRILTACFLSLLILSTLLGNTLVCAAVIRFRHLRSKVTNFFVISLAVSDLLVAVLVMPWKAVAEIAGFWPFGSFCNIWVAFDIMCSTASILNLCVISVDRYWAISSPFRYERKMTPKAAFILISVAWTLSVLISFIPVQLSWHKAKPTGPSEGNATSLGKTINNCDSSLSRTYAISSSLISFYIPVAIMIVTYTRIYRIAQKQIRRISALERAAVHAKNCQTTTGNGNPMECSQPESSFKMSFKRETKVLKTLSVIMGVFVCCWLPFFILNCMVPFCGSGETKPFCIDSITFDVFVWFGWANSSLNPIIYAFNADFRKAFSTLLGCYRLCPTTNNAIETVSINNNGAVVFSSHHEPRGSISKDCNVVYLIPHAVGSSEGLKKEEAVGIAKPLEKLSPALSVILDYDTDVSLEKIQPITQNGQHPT

Structure (SMILES)	Ki [1]	Ki [3]	also measured
CCCN(CCc1cccs1)C1CCc2c(O)cccc2C1 (racemic) [Example N-0437, reference compound]			D2 (pK1) [1]: 6.96; dopamine D2 agonist [2]: potent dopamine D2 agonist
CCCN(CCOc1ccccc1)C1CCc2c(O)cccc2C1 (single isomer, unassigned; (-)) [Example 30, (-)-5,6,7,8-tetrahydro-6-[(2-phenoxyethyl)propylamino]-1-naphthalenol]	170 nM	8.71 µM	
CCCN(CCOc1ccccc1)C1CCc2c(O)cccc2C1 (stereo not shown) [Example 2, 2-[N-n-propyl,N-2-(phenyloxy)ethylamino]-5-hydroxytetralin]	126 nM	12 µM	affinity for binding to dopamine D2 receptors ([1]; in words): high affinity; selectivity for binding to dopamine D2 receptors ([1]; in words): high affinity and selectivity
CCCN(CCC1OC(=O)c2ccccc21)C1CCc2c(O)cccc2C1 (stereo not shown) [Example 9, 3-[2-[propyl(1,2,3,4-tetrahydro-5-hydroxy-2-naphthalenyl)amino]ethyl]-l(3H)-isobenzofuranone]	66.1 nM	2.14 µM	
CCCN(CC(c1ccccc1)c1ccccc1)C1CCc2c(O)cccc2C1 (stereo not shown) [Example 12, 2-[N-n-propyl,N-2,2-diphenylethylamino]-5-hydroxytetralin]	46.8 nM	9.12 µM	
CCCN(CCC(c1ccccc1)c1ccccc1)C1CCc2c(O)cccc2C1 (stereo not shown) [Example 14, 2-[N-n-propyl,N-3,3-diphenyipropylamino]-5-hydroxytetralin]	339 nM	1.38 µM	
CCCN(CCOc1ccc2ccccc2c1)C1CCc2c(O)cccc2C1 (stereo not shown) [Example 32, 5,6,7,8-tetrahydro-6-[(2-(2-naphthalenyloxy)ethyl]propylamino]-1-naphthalenol]	2630 nM	4.17 µM	
CCCN(CCSc1ccccc1)C1CCc2c(O)cccc2C1 (stereo not shown) [Example 34, 5,6,7,8-tetrahydro-6-[(2-thiophenoxyethyl)propylamino]-1-naphthalenol]	79.4 nM	1.29 µM	
CCCN(CC[C@H]1OC(=O)c2ccccc21)[C@H]1CCc2c(O)cccc2C1 [Example 36, (S,R)-3-[2-[propyl(1,2,3,4-tetrahydro-5-hydroxy-2-naphthalenyl)amino]ethyl]-l(3H)-isobenzofuranone]			D2 (pK1) [1]: 6.85; D1 (pK1) [3]: 6.56
CCCN(CC[C@@H]1OC(=O)c2ccccc21)[C@H]1CCc2c(O)cccc2C1 [Example 37, (S,S)-3-[2-[propyl(1,2,3,4-tetrahydro-5-hydroxy-2-naphthalenyl)amino]ethyl]-1(3H)-isobenzofuranone]	123 nM	1.23 µM	
CCCN(CCOc1ccccc1)C1CCc2ccc(O)cc2C1 (stereo not shown) [Example 39, 5,6,7,8-tetrahydro-6-[(2-phenoxylethyl)-propylamino]-3-naphthalenol]	813 nM	12.3 µM	
CCCN(CCOc1cccc(F)c1)C1CCc2c(O)cccc2C1 (stereo not shown) [Example 45, 5,6,7,8-tetrahydro-6-[[2(3-fluorophenoxy)ethyl]propylamino]-1-naphthalenol]	316 nM	10.5 µM	
CCCN(CCC1OCc2ccccc21)C1CCc2c(O)cccc2C1 (stereo not shown) [Example 46, 6-[[2-(1,3-dihydro-1-isobenzofuranyl)-ethyl]propylamino]-5,6,7,8-tetrahydro-1-naphthalenol]			D2 (pK1) [1]: 6.77; D1 (pK1) [3]: 5.14
CCCN(CCOc1cccc2ccccc12)C1CCc2c(O)cccc2C1 (stereo not shown) [Example 48, 5,6,7,8-tetrahydro-6-[[2-(1-naphthalenyloxy)ethyl]propylamino]-1-naphthalenol hydrochloride]	1150 nM	13.5 µM	
CN1CCc2cccc3c2[C@H]1Cc1ccc(O)c(O)c1-3 [apomorphine]			dopaminergic activity [4]: high activity
